Here are results for 60 compounds from US20230348456A1, “QUINAZOLINONES, PHARMACEUTICAL COMPOSITIONS CONTAINING THE SAME, AND METHODS OF USING THE SAME” (Repare Therapeutics Inc., priority 2022, published 2023).

Sequence of recombinant human Myt1 (Q99640 whole entry): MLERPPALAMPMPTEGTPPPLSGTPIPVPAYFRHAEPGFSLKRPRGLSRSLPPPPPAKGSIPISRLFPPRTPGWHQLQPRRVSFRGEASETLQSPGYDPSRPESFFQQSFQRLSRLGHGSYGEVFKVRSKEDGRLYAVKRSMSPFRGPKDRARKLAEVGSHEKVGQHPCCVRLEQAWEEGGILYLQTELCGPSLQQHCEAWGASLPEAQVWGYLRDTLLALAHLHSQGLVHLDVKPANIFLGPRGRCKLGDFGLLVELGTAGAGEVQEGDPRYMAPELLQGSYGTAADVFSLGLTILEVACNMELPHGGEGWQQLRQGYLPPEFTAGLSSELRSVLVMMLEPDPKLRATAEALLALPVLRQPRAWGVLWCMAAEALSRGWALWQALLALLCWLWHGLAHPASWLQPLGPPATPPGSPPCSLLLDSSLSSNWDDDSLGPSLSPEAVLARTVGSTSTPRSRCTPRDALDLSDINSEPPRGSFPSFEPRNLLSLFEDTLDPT

This assay addresses recombinant human Myt1 (Homo sapiens (Human), UniProt Q99640). Kind of assay: Myt1 enzymatic assay (ADP-Glo kinase assay). It is filed as biochemical. The following applies: recombinant human Myt1 18 nM, ATP 10 μM. As for the experimental part:
Detection of Myt1 kinase activity utilized a recombinant human Myt1 kinase assay measuring the hydrolysis of ATP using a commercially available ADP-Glo Assay (ADP-Glo™ Kinase Assay from Promega, 10 000 assays, #V9102). Briefly, 5 μL recombinant human Myt1 (full length PKMYT1 recombinant human protein expressed in insect cells from Thermo Fisher #A33387; ˜80% purity) was prepared in reaction buffer (70 mM HEPES, 3 mM MgCl2, 3 mM MnCl2, 50 μg/ml PEG 20000, 3 μM Na-orthovanadate, 1.2 mM DTT) and added to 384 well white polystyrene, flat bottom well, non-treated, microplate (Corning #3572). After this, 5 μL of compounds (diluted in reaction buffer to 0.5% DMSO) was added to the microplate and the plate was spun briefly and incubated at 22° C. for 15 minutes. Ultra-Pure Adenosine Triphosphate (ATP) solution (ADP-Glo kit from Promega) was diluted in reaction buffer and 5 μL was added to the microplate, spun down briefly and incubated for 60 minutes at 30° C. The final Myt1 enzyme concentration was 18 nM and the final ATP concentration was 10 μM. After the 60-minute incubation, 15 μL of ADP-Glo reagent was added and the plate was spun briefly and sealed and incubated in the dark for 40 minutes at 22° C. Following this, 30 μL of kinase detection reagent was added per well and the plate was spun briefly, sealed and incubated for 45-60 minutes at 22° C. in the dark. Luminescence was read using the Envision (250 ms integration). The IC50 and the % max inhibition were calculated for each inhibitor compound tested.
A general note: In ADP-Glo the light output rises with the ADP produced.
For the compound `CN1CCC(n2cc(-c3cc(-c4cccc5[nH]ncc45)c(N)c4c(=O)[nH]c(-c5ccncc5)nc34)cn2)CC1` [Compound 60], the half-maximal inhibitory concentration (IC50) (commonly the concentration that inhibits the measured activity by half) was 3 nM.

In the case of `Cn1ccc(-c2cc(-c3cccc4[nH]ncc34)c(N)c3c(=O)[nH]c(-c4ccncc4)nc23)n1` [Compound 61], the IC50 is 2 nM. As for `Cc1ccc2[nH]ncc2c1-c1cc(-c2ccc(F)cn2)c2c(c1N)C(=O)NC2` [Compound 62], the IC50 amounted to 539 nM. In the case of `Cc1ccc2[nH]ncc2c1-c1cc(-c2nccs2)c2c(c1N)C(=O)NC2` [Compound 63] it was 16 nM. `Nc1c(-c2cccc3[nH]ncc23)cc(C2=CCOCC2)c2nc(-c3ccncc3)[nH]c(=O)c12` [Compound 64]: the IC50 was 3 nM. In the case of `Nc1c(-c2cccc3[nH]ncc23)cc(-c2cnn(C3CCOCC3)c2)c2nc(-c3ccncc3)[nH]c(=O)c12` [Compound 67] it was 3 nM; in that of `Nc1c(-c2cccc3[nH]ncc23)cc(-c2cnn(CC3CC3)c2)c2nc(-c3ccncc3)[nH]c(=O)c12` [Compound 68], 6 nM. For the compound `Cc1ccc(O)cc1-c1cc(Br)c2c(c1N)C(=O)NC2` [Compound 69], the half-maximal inhibitory concentration (IC50) was found to be 864 nM. On to `Nc1c(-c2cccc3[nH]ncc23)cc(-c2cccc(OC[C@H]3CCCO3)n2)c2nc(-c3ccncc3)[nH]c(=O)c12` [Compound 70], for which the IC50 was 4 nM. In the case of `Nc1c(-c2cccc3[nH]ncc23)cc(C2=CCC(F)(F)CC2)c2nc(-c3ccncc3)[nH]c(=O)c12` [Compound 71] it was 21 nM; in that of `Nc1c(-c2cccc3[nH]ncc23)cc(-c2cnn(C3CC3)c2)c2nc(-c3ccncc3)[nH]c(=O)c12` [Compound 72], 3 nM; in that of `Nc1c(-c2cccc3[nH]ncc23)cc(-c2cnn(C(F)F)c2)c2nc(-c3ccncc3)[nH]c(=O)c12` [Compound 73], 4 nM.

Take `Nc1c(-c2cccc3[nH]ncc23)cc(-n2ccc(C3CC3)n2)c2nc(-c3cccnc3)[nH]c(=O)c12` [Compound 74, 5-amino-8-(3-cyclopropylpyrazol-1-yl)-6-(1H-indazol-4-yl)-2-(3-pyridyl)-3H-quinazolin-4-one]: the IC50 was found to be 11 nM.

Consider `Nc1c(-c2cccc3[nH]ncc23)cc(-n2cc(F)cn2)c2nc(-c3cccnc3)[nH]c(=O)c12` [Compound 75], for which the IC50 was determined as 6 nM. For `Nc1c(-c2cccc3[nH]ncc23)cc(-n2ccc(C3CCOCC3)n2)c2nc(-c3cccnc3)[nH]c(=O)c12` [Compound 76], the IC50 amounted to 8 nM. With `Nc1c(-c2cccc3[nH]ncc23)cc(-n2cccn2)c2nc(-c3cccnc3)[nH]c(=O)c12` [Compound 79], the IC50 amounted to 3 nM. As to `Nc1c(-c2cccc3[nH]ncc23)cc(-c2cccc(=O)[nH]2)c2nc(-c3cccnc3)[nH]c(=O)c12` [Compound 80], the IC50 was determined as 6 nM. As to `Nc1c(-c2cccc3[nH]ncc23)cc(-c2cnn(C3CCOCC3)c2)c2nc(-c3cccnc3)[nH]c(=O)c12` [Compound 81], the IC50 is 4 nM. `Nc1c(-c2cccc3[nH]ncc23)cc(-c2ccccn2)c2nc[nH]c(=O)c12` [Compound 82]: the IC50 was 35 nM. Consider `Nc1c(-c2cccc3[nH]ncc23)cc(Br)c2nc(-c3ccncc3)[nH]c(=O)c12` [Compound 83], for which the IC50 turned out to be 5 nM. `Cc1ccc(O)cc1-c1ccc2c(c1N)C(=O)NC2` [Compound 85]: the IC50 stood at 16000 nM. On to `Nc1c(-c2cccc3[nH]ncc23)cc(-n2cc3c(n2)CCC3)c2nc(-c3ccncc3)[nH]c(=O)c12` [Compound 86], for which the IC50 was determined as 18 nM. Regarding `Nc1c(-c2cccc3[nH]ncc23)cc(-n2cc(C(F)(F)F)cn2)c2nc(-c3ccncc3)[nH]c(=O)c12` [Compound 87], the IC50 was 100 nM. Regarding `Cc1ccc2[nH]ncc2c1-c1cc(-c2cccc(OCCN3CCOCC3)n2)c2nc[nH]c(=O)c2c1N` [Compound 88], the concentration for half-maximal inhibition (IC50) was 5 nM. The same measure for `Cc1ccc2[nH]ncc2c1-c1cc(-c2cccc(OCCN3CCCC3)n2)c2nc[nH]c(=O)c2c1N` [Compound 89]: 13 nM; for `Cc1ccc2[nH]ncc2c1-c1cc(-c2cccc(OCc3nccn3C)n2)c2nc[nH]c(=O)c2c1N` [Compound 90]: 11 nM. Take `Cc1ccc2[nH]ncc2c1-c1cc(-c2cccc(OCc3ncco3)n2)c2nc[nH]c(=O)c2c1N` [Compound 91]: the IC50 was 5 nM.

`Nc1c(-c2cccc3[nH]ncc23)cc(C2CC2)c2nc(-c3cccnc3)[nH]c(=O)c12` [Compound 92]: the half-maximal inhibitory concentration (IC50) amounted to 7 nM. Regarding `Cc1ccc(O)cc1-c1cc(-c2nccs2)c2c(c1N)C(=O)NC2` [Compound 93], the half-inhibitory concentration (IC50) is 22 nM. In the case of `Nc1c(-c2cccc3[nH]ncc23)cc(-c2cccc(OCC(=O)O)c2)c2nc[nH]c(=O)c12` [Compound 94], the IC50 was found to be 46 nM. Take `Nc1c(-c2cccc3[nH]ncc23)cc(-c2cccc(OCc3ncco3)c2)c2nc[nH]c(=O)c12` [Compound 95]: the IC50 is 10 nM. Turning to `Nc1c(-c2cccc3[nH]ncc23)ccc2nc(-c3ccncc3)[nH]c(=O)c12` [Compound 96], the IC50 came to 67 nM.

With `Cc1ccc2[nH]ncc2c1-c1cc(-c2cccc(OC[C@H]3COCCO3)n2)c2nc[nH]c(=O)c2c1N` [Compound 97], the IC50 was 10 nM. Take `Cc1ccc2[nH]ncc2c1-c1cc(-c2nccs2)c2nc[nH]c(=O)c2c1N` [Compound 98]: the IC50 is 5 nM. In the case of `Cc1ccc2[nH]ncc2c1-c1cc(-c2cccc(F)n2)c2nc[nH]c(=O)c2c1N` [Compound 99] it was 17 nM; in that of `Nc1c(-c2cccc3[nH]ncc23)cc(-c2cnn(C3COC3)c2)c2nc(-c3cccnc3)[nH]c(=O)c12` [Compound 100], 5 nM; in that of `Cc1ccc2[nH]ncc2c1-c1cc(-c2cccc(OC[C@@H]3COCCO3)n2)c2nc[nH]c(=O)c2c1N` [Compound 101], 11 nM.

As to `Cc1ccc2[nH]ncc2c1-c1cc(-c2cccc(OCc3ncccn3)n2)c2nc[nH]c(=O)c2c1N` [Compound 102], the half-maximal inhibitory concentration (IC50) was 10 nM.

In the case of `COCCOc1ccc(-c2nc3c(Br)cc(-c4cccc5[nH]ncc45)c(N)c3c(=O)[nH]2)cn1` [Compound 103], the IC50 came to 8 nM. Take `Cc1ccc(O)cc1-c1cc(C2=CCOCC2)c2c(c1N)C(=O)NC2` [Compound 105]: the half-inhibitory concentration (IC50) stood at 641 nM.

`Nc1c(-c2cccc3[nH]ncc23)cc(Br)c2nc[nH]c(=O)c12` [Compound 106]: the IC50 turned out to be 24 nM.

On to `N#Cc1csc(-c2cc(-c3cccc4[nH]ncc34)c(N)c3c(=O)[nH]cnc23)n1` [Compound 107], for which the IC50 amounted to 3 nM. As to `Cc1ccc(O)cc1-c1cc(-c2ncccn2)c2c(c1N)C(=O)NC2` [Compound 108], the IC50 stood at 73 nM. `Nc1c(-c2cccc3[nH]ncc23)ccc2nc[nH]c(=O)c12` [Compound 109]: the IC50 is 122 nM. On to `Cc1ccc2[nH]ncc2c1-c1cc(-c2cccc(OC3CCOCC3)n2)c2nc[nH]c(=O)c2c1N` [Compound 110], for which the IC50 came out at 7 nM. On to `Nc1c(-c2cccc3[nH]ncc23)cc(-c2nccs2)c2nc(-c3cccnc3)[nH]c(=O)c12` [Compound 111], for which the half-maximal inhibitory concentration (IC50) came to 4 nM. On to `Nc1c(-c2cccc3[nH]ncc23)cc(-c2nccs2)c2nc(CCc3cccnc3)[nH]c(=O)c12` [Compound 112], for which the IC50 was 34 nM. In the case of `Cc1ncccc1-c1nc2c(-c3nccs3)cc(-c3cccc4[nH]ncc34)c(N)c2c(=O)[nH]1` [Compound 113], the IC50 was 94 nM.

On to `Nc1c(-c2cccc3[nH]ncc23)cc(-c2ncc(Cl)s2)c2nc[nH]c(=O)c12` [Compound 114], for which the half-maximal inhibitory concentration (IC50) was found to be 28 nM. `Nc1c(-c2cccc3[nH]ncc23)cc(-c2ncc(C(F)(F)F)s2)c2nc[nH]c(=O)c12` [Compound 115]: the IC50 was 109 nM. For `Nc1c(-c2cccc3[nH]ncc23)cc(-c2nc(Cl)cs2)c2nc[nH]c(=O)c12` [Compound 116], the IC50 is 13 nM. Regarding `Nc1c(-c2cccc3[nH]ncc23)cc(-c2ccc(F)s2)c2nc[nH]c(=O)c12` [Compound 117], the IC50 is 15 nM. As to `N#Cc1ccc(-c2cc(-c3cccc4[nH]ncc34)c(N)c3c(=O)[nH]cnc23)s1` [Compound 118], the IC50 amounted to 11 nM. With `Nc1c(-c2cccc3[nH]ncc23)cc(-c2nc(C(F)(F)F)cs2)c2nc[nH]c(=O)c12` [Compound 119], the IC50 worked out at 55 nM. In the case of `Nc1c(-c2cccc3[nH]ncc23)cc(-c2ncc(F)cn2)c2nc[nH]c(=O)c12` [Compound 120] it was 189 nM; in that of `Cc1ccc(-c2cc(-c3cccc4[nH]ncc34)c(N)c3c(=O)[nH]cnc23)s1` [Compound 121, 5-amino-6-(1H-indazol-4-yl)-8-(5-methylthiophen-2-yl)quinazolin-4(3H)-one], 62 nM. For `Nc1c(-c2cccc3[nH]ncc23)cc(-c2ncccn2)c2nc[nH]c(=O)c12` [Compound 122], the half-inhibitory concentration (IC50) was 170 nM. Consider `Nc1c(-c2cccc3[nH]ncc23)cc(-c2ccc(Cl)s2)c2nc[nH]c(=O)c12` [Compound 123], for which the half-maximal inhibitory concentration (IC50) stood at 89 nM.

On to `Nc1c(-c2cccc3[nH]ncc23)cc(-c2cc(F)cc(F)c2)c2nc[nH]c(=O)c12` [Compound 124], for which the 50% inhibitory concentration (IC50) worked out at 66 nM. The same measure for `Nc1c(-c2cccc3[nH]ncc23)cc(-c2ccc(C(F)(F)F)cc2)c2nc[nH]c(=O)c12` [Compound 125]: 839 nM.
